Experimental data: PubChem BioAssay (NCI)
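These data come from cells grown in 96-well plates and exposed to compound for 48 hours at five concentrations. TGI: concentration producing complete growth inhibition.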

What was measured:
Assay in all cases: NCI anticancer screen, dose series, 48 h
786-0 renal = system: 786-0 renal
BT-549 breast = system: BT-549 breast
HCT-116 colon = system: HCT-116 colon
HOP-92 NSCLC = system: HOP-92 NSCLC
HS 578T breast = system: HS 578T breast
LOX IMVI melanoma = system: LOX IMVI melanoma
MALME-3M melanoma = system: MALME-3M melanoma
NCI-H226 lung = system: NCI-H226 lung
NCI-H460 lung = system: NCI-H460 lung
NCI-H522 lung = system: NCI-H522 lung
NCI/ADR-RES ovarian = system: NCI/ADR-RES ovarian
OVCAR-3 ovarian = system: OVCAR-3 ovarian
OVCAR-4 ovarian = system: OVCAR-4 ovarian
OVCAR-8 ovarian = system: OVCAR-8 ovarian
SK-MEL-28 melanoma = system: SK-MEL-28 melanoma
SNB-19 CNS = system: SNB-19 CNS
SNB-75 CNS = system: SNB-75 CNS
SR leukemia = system: SR leukemia
U251 CNS = system: U251 CNS
UACC-62 melanoma = system: UACC-62 melanoma

SMILES | TGI (786-0 renal) [µM] | TGI (BT-549 breast) [µM] | TGI (HCT-116 colon) [µM] | TGI (HOP-92 NSCLC) [µM] | TGI (HS 578T breast) [µM] | TGI (LOX IMVI melanoma) [µM] | TGI (MALME-3M melanoma) [µM] | TGI (NCI-H226 lung) [µM] | TGI (NCI-H460 lung) [µM] | TGI (NCI-H522 lung) [µM] | TGI (NCI/ADR-RES ovarian) [µM] | TGI (OVCAR-3 ovarian) [µM] | TGI (OVCAR-4 ovarian) [µM] | TGI (OVCAR-8 ovarian) [µM] | TGI (SK-MEL-28 melanoma) [µM] | TGI (SNB-19 CNS) [µM] | TGI (SNB-75 CNS) [µM] | TGI (SR leukemia) [µM] | TGI (U251 CNS) [µM] | TGI (UACC-62 melanoma) [µM]
CCCCCCCC/C=C\CCCCCCCCNc1ccn(C2OC(COP(=O)(O)OC3CC(n4cc(F)c(=O)[nH]c4=O)OC3CO)C(O)C2O)c(=O)n1 (stereo unspecified) | > 100 | > 100 | > 100 | > 100 | > 100 | > 37.2 | > 100 | > 100 | > 100 | > 100 | > 100 | > 100 | > 100 | > 100 | > 100 | > 100 | > 100 | 37.7 | > 100 | > 95
C=C(Cl)C(C)(Cl)CCC(Cl)C(C)(C)Cl (stereo unspecified) | > 100 | > 100 | > 100 | > 100 | > 100 | 61.2 | > 100 | > 100 | > 100 | 56.3 | > 100 | > 100 | > 100 |  | > 100 | > 100 | > 100 | 61.3 | > 100 | 
C=CCNC1=C2C[C@@H](C)C[C@@H](OC)[C@H](OC(=O)CN(C)C)[C@H](C)/C=C(\C)[C@@H](OC(N)=O)[C@H](OC)/C=C\C=C(/C)C(=O)NC(=CC1=O)C2=O | 21 | 24 | 16.2 | 23.3 | 47.7 | 8.19 | 19 |  | 15.6 | 18.3 | > 92.1 | 13.8 | 26 | 63.1 | 25.7 | 20.8 | 0.909 | > 32 | 19.7 | 11.6
CCOC(=O)c1ccc2c(c1)nc1n2C(c2c(F)cccc2F)SC1 (stereo unspecified) | 67.8 | > 100 | 34 | > 100 | > 100 | 58.6 |  | 34.6 | > 100 |  | 44.9 | 43.4 | > 100 | 58.7 | > 100 | 83.5 | > 100 | > 100 | > 100 | > 100
COC(=O)c1cc(C#N)[nH]c1-c1ccsc1 | > 100 | > 100 | > 100 | > 100 | > 100 | > 100 | > 100 | > 100 |  | > 100 | > 100 | > 100 | > 100 | > 100 | > 100 |  | > 100 | > 100 | > 100 | > 100
NCC(=O)C(O)C(O)C(O)CO (stereo unspecified) | > 100 | > 100 | > 100 | > 100 | > 100 | > 100 | > 100 | > 100 | > 100 | > 100 | > 100 | > 100 | > 100 | > 100 | > 100 | > 100 | > 100 | > 100 | > 100 | > 100
c1ccc(COCC23CCN(Cc4ccccc4)C(CC(OCc4ccccc4)C2)S3)cc1 (stereo unspecified) | > 100 | > 100 | > 100 | 87.4 | > 100 | > 100 | > 100 | > 100 | > 100 | 72.7 | > 100 | > 100 | > 100 | > 100 | > 100 | > 100 | > 100 | 63.7 | > 100 | > 100
Cc1cc(Cl)nc(NC(=O)CSc2ccc(Cl)cc2)n1 | > 100 | > 100 | > 100 | > 100 | > 100 | > 100 | > 100 | > 100 | > 100 | > 100 | > 100 | > 100 |  | > 100 | > 100 | > 100 |  | > 100 | > 100 | > 100
COc1cccc2c1C(=O)C(=O)c1c-2oc(=O)c2cc(C)cc(OC)c12 | > 75 | 26 | > 75 | > 75 | 55.1 | 26.5 | > 75 | > 75 | > 75 | 26.5 | 31.7 | 27.2 | 26.7 | 30.6 | > 75 | > 75 | 55.7 | > 75 | 23.2 | > 75
CC12CN(CC[N+](C)(C)C)CC1(C)C1CCC2O1 (stereo unspecified) | > 100 | > 100 | > 100 | > 100 | > 100 | > 100 | > 100 | > 100 | > 100 | > 100 | > 100 | > 100 | > 100 | > 100 | > 100 | > 100 | > 100 | > 100 | > 100 | > 100
O=C(NNC(=S)Nc1ccccc1)C12CC3CC(CC(C3)C1)C2 | > 100 | 60.8 | > 94.3 | 95.8 | > 100 | > 91.9 | > 100 | > 86.6 | > 100 | > 100 | 59.7 | > 67.7 | > 100 | > 100 | > 100 | > 100 | > 92.9 | 22.5 | > 100 | > 100
Cc1ccc(SCC(OCn2cnc3c(N)ncnc32)[C@H](C)F)cc1 (stereo partly specified) | > 100 | > 100 | > 100 | > 100 | > 100 | > 100 | > 100 | > 100 | > 100 | > 100 | > 100 | > 100 | > 100 | > 100 | > 100 | > 100 | > 100 | > 100 | > 100 | > 100
